Experimental data published in PubChem BioAssay (NCI).
Several values for one entry are separate records, joined by “and”; a condition that tells them apart may be missing. Identical values can stand only once.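 Results reflect a 48-hour exposure of cells in 96-well plates to compound at five concentrations. The concentration for 50% growth inhibition is given as GI50. TGI is the concentration that stops growth completely.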

Assays:
Experiment in all cases: growth of human tumour cells (NCI), 48 h
SK-MEL-5 melanoma = tested on: SK-MEL-5 melanoma
SK-MEL-28 melanoma = tested on: SK-MEL-28 melanoma
HL-60(TB) leukemia = tested on: HL-60(TB) leukemia
LOX IMVI melanoma = tested on: LOX IMVI melanoma
HOP-62 NSCLC = tested on: HOP-62 NSCLC
OVCAR-8 ovarian = tested on: OVCAR-8 ovarian
HS 578T breast = tested on: HS 578T breast
HCT-116 colon = tested on: HCT-116 colon
NCI-H460 lung = tested on: NCI-H460 lung
SR leukemia = tested on: SR leukemia

## Cc1cn2c(=O)n(c1=O)Cc1ccccc1C2
SK-MEL-5 melanoma
  GI50: 83.1 µM
  TGI: > 100 µM
SK-MEL-28 melanoma
  GI50: > 100 µM
  TGI: > 100 µM
HL-60(TB) leukemia
  GI50: > 100 µM
  TGI: > 100 µM
LOX IMVI melanoma
  GI50: 32 µM
  TGI: > 100 µM
HOP-62 NSCLC
  GI50: > 100 µM
  TGI: > 100 µM
OVCAR-8 ovarian
  GI50: 46.6 µM
  TGI: > 100 µM
HS 578T breast
  GI50: 8.97 µM
  TGI: > 100 µM
HCT-116 colon
  GI50: 27.3 µM
  TGI: > 100 µM
NCI-H460 lung
  GI50: > 100 µM
  TGI: > 100 µM

## CC(=O)O[C@H]1CC[C@@]2(C)C(=CC[C@@H]3C2CC[C@]2(C)Nc4[nH]ncc4CC32)C1 (stereo not given in full)
SK-MEL-5 melanoma
  TGI: 42.5 µM
SK-MEL-28 melanoma
  TGI: > 100 µM
HL-60(TB) leukemia
  TGI: 53.5 µM
HOP-62 NSCLC
  TGI: > 100 µM
OVCAR-8 ovarian
  TGI: > 100 µM
HCT-116 colon
  TGI: 29.9 µM
NCI-H460 lung
  TGI: 33.7 µM

## COc1cc2c(c(OC)c1OC)-c1ccc(SC)c(=O)cc1C(CC(=O)Oc1cccc(C#N)c1)C2 (stereo not given)
SK-MEL-5 melanoma
  TGI: 40.8 µM
SK-MEL-28 melanoma
  TGI: > 100 µM
HL-60(TB) leukemia
  TGI: 2.35 µM
LOX IMVI melanoma
  TGI: > 33.2 µM
HOP-62 NSCLC
  TGI: > 100 µM
OVCAR-8 ovarian
  TGI: 6.88 µM
HCT-116 colon
  TGI: 5.66 µM
SR leukemia
  TGI: 56.3 µM
NCI-H460 lung
  TGI: 19.7 µM

## NC1=C(Cl)C(=O)c2ccccc2C1=O
SK-MEL-5 melanoma
  TGI: 2.09 µM
SK-MEL-28 melanoma
  TGI: 11.3 µM
HL-60(TB) leukemia
  TGI: 45.4 µM
LOX IMVI melanoma
  TGI: 7.91 µM
HOP-62 NSCLC
  TGI: 32 µM
OVCAR-8 ovarian
  TGI: 27.8 µM
HCT-116 colon
  TGI: 11.6 µM
SR leukemia
  TGI: 32.9 µM
NCI-H460 lung
  TGI: 11 µM

## COc1ccc2c(c1)CCCC1C3=NCCC3(C)CSC21 (stereo not given)
SK-MEL-5 melanoma
  TGI: > 100 µM
SK-MEL-28 melanoma
  TGI: > 100 µM
HL-60(TB) leukemia
  TGI: 44.7 µM
LOX IMVI melanoma
  TGI: > 100 µM
OVCAR-8 ovarian
  TGI: > 100 µM
HCT-116 colon
  TGI: > 100 µM
NCI-H460 lung
  TGI: > 100 µM

## CCOC(=O)c1cnc2cc3cccccc3n2c1=O
SK-MEL-28 melanoma
  TGI: > 100 µM
HL-60(TB) leukemia
  TGI: > 100 µM
LOX IMVI melanoma
  TGI: > 100 µM
HOP-62 NSCLC
  TGI: > 100 µM
OVCAR-8 ovarian
  TGI: > 100 µM
HCT-116 colon
  TGI: > 100 µM
SR leukemia
  TGI: > 100 µM
NCI-H460 lung
  TGI: > 100 µM

## COc1cc2c3c(n(CCCNCCNCCCN)c(=O)c2cc1OC)-c1cc2c(cc1C3=O)OCO2
SK-MEL-5 melanoma
  GI50: 6.41 µM
  TGI: 20.3 µM
SK-MEL-28 melanoma
  GI50: 6.6 µM
  TGI: 20.1 µM
HL-60(TB) leukemia
  GI50: 6.11 µM
  TGI: 51.7 µM
LOX IMVI melanoma
  GI50: 1.08 µM
  TGI: 3.75 µM
HOP-62 NSCLC
  GI50: 2.88 µM
  TGI: 15.6 µM
OVCAR-8 ovarian
  GI50: 2.39 µM
  TGI: 6.45 µM
HS 578T breast
  GI50: 1.38 µM
  TGI: 7.93 µM
HCT-116 colon
  GI50: 1.29 µM
  TGI: 2.56 µM
NCI-H460 lung
  GI50: 6.41 µM
  TGI: > 100 µM

## CCCCCCCCCCCCCCCCn1cc[n+](Cc2ccccc2)c1C
SK-MEL-28 melanoma
  GI50: 1.7 µM and 0.246 µM
  TGI: 4.22 µM and 1.35 µM
HL-60(TB) leukemia
  GI50: 0.0496 µM
  TGI: 2.06 µM
HS 578T breast
  GI50: 3.62 µM
  TGI: > 100 µM
NCI-H460 lung
  GI50: 0.479 µM
  TGI: 1.8 µM

## O=C(O)CCCNS(=O)(=O)c1ccc2ccccc2c1
SK-MEL-5 melanoma
  TGI: > 100 µM
SK-MEL-28 melanoma
  TGI: > 100 µM
HL-60(TB) leukemia
  TGI: > 100 µM
LOX IMVI melanoma
  TGI: > 100 µM
OVCAR-8 ovarian
  TGI: > 100 µM
NCI-H460 lung
  TGI: > 100 µM

## CCCCCCN1CCN(Cc2ccc(N(CC)CC)cc2)C(=O)C1=O
SK-MEL-5 melanoma
  GI50: 0.412 µM
  TGI: 11.3 µM
SK-MEL-28 melanoma
  GI50: 7.17 µM
  TGI: > 100 µM
LOX IMVI melanoma
  GI50: 7.95 µM
  TGI: > 100 µM
HOP-62 NSCLC
  GI50: 4.97 µM
  TGI: > 100 µM
OVCAR-8 ovarian
  GI50: 5.42 µM
  TGI: > 100 µM
HS 578T breast
  GI50: 3.14 µM
  TGI: 27.7 µM
HCT-116 colon
  GI50: 3.92 µM
  TGI: > 100 µM
SR leukemia
  GI50: 1.03 µM
  TGI: 13.4 µM
NCI-H460 lung
  GI50: 3.35 µM
  TGI: 17.3 µM

## O=CN1CCN(C=S)CC1
SK-MEL-5 melanoma
  TGI: > 100 µM
SK-MEL-28 melanoma
  TGI: > 100 µM
HL-60(TB) leukemia
  TGI: > 100 µM
LOX IMVI melanoma
  TGI: > 100 µM
HOP-62 NSCLC
  TGI: > 100 µM
OVCAR-8 ovarian
  TGI: > 100 µM
HCT-116 colon
  TGI: > 100 µM
SR leukemia
  TGI: > 100 µM
NCI-H460 lung
  TGI: > 100 µM

## OCc1ccc(Oc2c3ccccc3nc3occc23)cc1
SK-MEL-28 melanoma
  GI50: 41.4 µM
  TGI: > 100 µM
HL-60(TB) leukemia
  GI50: 27.2 µM
  TGI: 79.6 µM
HOP-62 NSCLC
  GI50: 30.4 µM
  TGI: > 100 µM
OVCAR-8 ovarian
  GI50: 28.3 µM
  TGI: > 100 µM
HS 578T breast
  GI50: 54.8 µM
  TGI: > 100 µM
HCT-116 colon
  GI50: 15.9 µM
  TGI: 29.4 µM
SR leukemia
  GI50: 38.5 µM
  TGI: > 100 µM
NCI-H460 lung
  GI50: 20.8 µM
  TGI: 68 µM

## NC(N)=N/N=C/c1c(-c2ccc(Cl)c([N+](=O)[O-])c2)nc2ccccn12
SK-MEL-5 melanoma
  GI50: 13.3 µM
  TGI: 41.3 µM
HOP-62 NSCLC
  GI50: 1.56 µM
  TGI: 2.9 µM
HS 578T breast
  GI50: 24.2 µM
  TGI: 60.2 µM
HCT-116 colon
  GI50: 0.362 µM
  TGI: 1.55 µM

## COc1ccc(C(O)/C(=C/n2ccnc2)c2ccccc2)cc1OC (stereo not given)
SK-MEL-5 melanoma
  TGI: > 100 µM
SK-MEL-28 melanoma
  TGI: > 100 µM
HL-60(TB) leukemia
  TGI: > 100 µM
LOX IMVI melanoma
  TGI: > 100 µM
HOP-62 NSCLC
  TGI: > 100 µM
OVCAR-8 ovarian
  TGI: > 100 µM
HCT-116 colon
  TGI: > 100 µM
SR leukemia
  TGI: > 100 µM
NCI-H460 lung
  TGI: > 100 µM

## CN(CCN(C)C(=O)CCOS(C)(=O)=O)C(=O)CCOS(C)(=O)=O
SK-MEL-5 melanoma
  TGI: > 100 µM
SK-MEL-28 melanoma
  TGI: > 100 µM
HL-60(TB) leukemia
  TGI: > 100 µM
LOX IMVI melanoma
  TGI: > 100 µM
HOP-62 NSCLC
  TGI: > 100 µM
OVCAR-8 ovarian
  TGI: > 100 µM
HCT-116 colon
  TGI: > 100 µM
SR leukemia
  TGI: > 100 µM
NCI-H460 lung
  TGI: > 100 µM

## CN1CCC(n2[nH]c(-c3ccccc3)c(Cc3ccccc3)c2=O)CC1
SK-MEL-5 melanoma
  TGI: > 100 µM
SK-MEL-28 melanoma
  TGI: > 100 µM
LOX IMVI melanoma
  TGI: > 100 µM
HOP-62 NSCLC
  TGI: > 100 µM
OVCAR-8 ovarian
  TGI: > 100 µM
HS 578T breast
  TGI: > 100 µM
HCT-116 colon
  TGI: > 100 µM
SR leukemia
  TGI: > 100 µM
NCI-H460 lung
  TGI: > 100 µM

## c1cncc(CNc2ncn[nH]2)c1
SK-MEL-5 melanoma
  TGI: > 100 µM
SK-MEL-28 melanoma
  TGI: > 100 µM
LOX IMVI melanoma
  TGI: > 100 µM
HOP-62 NSCLC
  TGI: > 100 µM
OVCAR-8 ovarian
  TGI: > 100 µM
HS 578T breast
  TGI: > 100 µM
HCT-116 colon
  TGI: > 100 µM
SR leukemia
  TGI: > 100 µM
NCI-H460 lung
  TGI: > 100 µM

## NC(=O)c1c2c(cc3c(=O)c4ccccc4[nH]c13)CCCC2
SK-MEL-5 melanoma
  TGI: > 100 µM
SK-MEL-28 melanoma
  TGI: > 100 µM
HL-60(TB) leukemia
  TGI: > 100 µM
LOX IMVI melanoma
  TGI: > 100 µM
HOP-62 NSCLC
  TGI: > 100 µM
OVCAR-8 ovarian
  TGI: > 100 µM
HCT-116 colon
  TGI: > 100 µM
SR leukemia
  TGI: > 100 µM
NCI-H460 lung
  TGI: > 100 µM

## Cc1c(O)c(=O)ccn1CCO
SK-MEL-5 melanoma
  TGI: > 100 µM
SK-MEL-28 melanoma
  TGI: > 100 µM
HL-60(TB) leukemia
  TGI: > 100 µM
LOX IMVI melanoma
  TGI: > 100 µM
HOP-62 NSCLC
  TGI: > 100 µM
OVCAR-8 ovarian
  TGI: > 100 µM
HCT-116 colon
  TGI: > 100 µM
SR leukemia
  TGI: > 100 µM
NCI-H460 lung
  TGI: > 100 µM

## COc1ccc(-n2c3c(c4c(CN(C)C)c(O)c(C)cc42)CCc2ccccc2C3=O)cc1
SK-MEL-5 melanoma
  GI50: 21.5 µM
  TGI: 68.8 µM
HL-60(TB) leukemia
  GI50: 12.3 µM
  TGI: 43.6 µM
LOX IMVI melanoma
  GI50: 17.1 µM
  TGI: 45.2 µM
HOP-62 NSCLC
  GI50: 40.8 µM
  TGI: > 100 µM
OVCAR-8 ovarian
  GI50: 31.6 µM
  TGI: > 100 µM
HS 578T breast
  GI50: 48.2 µM
  TGI: > 100 µM
HCT-116 colon
  GI50: 34.4 µM
  TGI: > 100 µM
NCI-H460 lung
  GI50: 69.1 µM
  TGI: > 100 µM

## CC1=CC2CC(C)C1(C)CCc1ccoc12 (stereo not given)
SK-MEL-5 melanoma
  TGI: > 100 µM
SK-MEL-28 melanoma
  TGI: > 100 µM
HL-60(TB) leukemia
  TGI: > 100 µM
LOX IMVI melanoma
  TGI: > 100 µM
HOP-62 NSCLC
  TGI: > 100 µM
OVCAR-8 ovarian
  TGI: > 100 µM
HCT-116 colon
  TGI: > 100 µM
SR leukemia
  TGI: > 100 µM
NCI-H460 lung
  TGI: > 100 µM
